# Results published in ChEMBL document CHEMBL1135264, “Thalidomide and its analogues as cyclooxygenase inhibitors” (Bioorg Med Chem Lett, 2002).
# The source made the active and inactive calls. The calls are words filed in the database; no cut-off is given here.
# Biological target: T1, Prostaglandin G/H synthase 1 (Ovis aries) (UniProt P05979)
# T1 sequence (whole entry): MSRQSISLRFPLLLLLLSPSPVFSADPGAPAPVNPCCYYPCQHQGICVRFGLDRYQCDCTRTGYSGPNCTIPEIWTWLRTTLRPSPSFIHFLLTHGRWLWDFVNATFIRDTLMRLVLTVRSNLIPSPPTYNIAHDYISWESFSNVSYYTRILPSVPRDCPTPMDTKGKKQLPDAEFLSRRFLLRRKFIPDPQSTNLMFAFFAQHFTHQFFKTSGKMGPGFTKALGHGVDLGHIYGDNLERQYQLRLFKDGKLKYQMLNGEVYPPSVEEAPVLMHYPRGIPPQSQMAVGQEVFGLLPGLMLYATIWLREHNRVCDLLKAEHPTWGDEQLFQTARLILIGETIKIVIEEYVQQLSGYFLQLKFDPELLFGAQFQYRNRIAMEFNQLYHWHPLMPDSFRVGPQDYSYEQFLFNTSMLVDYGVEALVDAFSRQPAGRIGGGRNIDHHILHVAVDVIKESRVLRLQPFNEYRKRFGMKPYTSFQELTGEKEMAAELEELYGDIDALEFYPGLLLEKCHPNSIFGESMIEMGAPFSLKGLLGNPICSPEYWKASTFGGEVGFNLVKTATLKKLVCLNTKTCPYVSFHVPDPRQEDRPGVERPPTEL
# Experiment: Selective index (SI) which is the ratio of IC50 of Prostaglandin G/H synthase 1 / […]; IN=Inactive
row,Ratio,SMILES
1,inactive,C[C@]1(N2C(=O)c3ccccc3C2=O)CCC(=O)NC1=O

# Biological target: T2, Prostaglandin G/H synthase 2 (Ovis aries, UniProt P79208)
# T2 sequence (P79208 whole entry): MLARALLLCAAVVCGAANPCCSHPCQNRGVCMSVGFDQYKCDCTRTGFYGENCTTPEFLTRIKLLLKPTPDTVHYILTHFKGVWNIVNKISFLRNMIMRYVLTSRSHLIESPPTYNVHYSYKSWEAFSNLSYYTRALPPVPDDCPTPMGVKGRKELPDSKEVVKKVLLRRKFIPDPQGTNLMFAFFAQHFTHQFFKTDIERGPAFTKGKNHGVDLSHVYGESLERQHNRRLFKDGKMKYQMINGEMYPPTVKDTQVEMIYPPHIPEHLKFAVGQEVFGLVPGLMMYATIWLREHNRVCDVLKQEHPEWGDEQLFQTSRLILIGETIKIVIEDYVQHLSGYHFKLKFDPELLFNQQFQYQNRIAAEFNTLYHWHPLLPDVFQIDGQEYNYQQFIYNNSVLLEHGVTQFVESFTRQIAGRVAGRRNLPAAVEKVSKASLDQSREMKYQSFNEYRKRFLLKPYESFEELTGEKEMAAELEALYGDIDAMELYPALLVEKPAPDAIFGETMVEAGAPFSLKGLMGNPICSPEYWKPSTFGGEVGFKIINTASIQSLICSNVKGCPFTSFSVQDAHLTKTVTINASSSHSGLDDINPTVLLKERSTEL
# Experiment: Inhibitory activity (RA2) against Prostaglandin G/H synthase 2 was calculated relative to aspirin
row,IC50,SMILES
1,Not Active,C[C@]1(N2C(=O)c3ccccc3C2=O)CCC(=O)NC1=O

# Biological target: T3, Prostaglandin G/H synthase 1 (Ovis aries, UniProt P05979)
# T3 sequence (P05979 whole entry): T1 sequence (whole entry)
# Experiment: Inhibitory activity (RA1) against Prostaglandin G/H synthase 1 was calculated relative to aspirin
row,IC50,SMILES
1,Not Active,C[C@]1(N2C(=O)c3ccccc3C2=O)CCC(=O)NC1=O

# Biological target: T1, Prostaglandin G/H synthase 1 (Ovis aries)
# Experiment: Selective index (SI) which is the ratio of IC50 of Prostaglandin G/H synthase 1 / […]
row,Ratio,SMILES
1,0.38,COc1cc(OC)nc(N2C(=O)Cc3ccccc3C2=O)n1
2,2.63,C[C@@]1(N2C(=O)c3ccc([N+](=O)[O-])cc3C2=O)CCC(=O)NC1=O
3,0.44,O=C1c2ccccc2C(=O)N1CCn1ccc(=O)[nH]c1=O
4,0.39,Cc1cc(C)cc(N2C(=O)Cc3ccccc3C2=O)c1
5,2.56,C[C@@]1(N2C(=O)c3ccccc3C2=O)CCC(=O)NC1=O
6,< 0.07,C[C@@]1(N2C(=O)c3ccc(N)cc3C2=O)CCC(=O)NC1=O

# Continued, molecule first:
row,SMILES,Ratio
1,Cc1cc(C)cc(N2C(=O)c3ccccc3C2=O)c1,2.14
2,Cc1cc(C)nc(N2C(=O)Cc3ccccc3C2=O)c1,0.51
3,Cc1cc(C)c(C)c(N2C(=O)c3ccccc3C2=O)c1C,4.16
4,C[C@@]1(N2C(=O)c3cccc([N+](=O)[O-])c3C2=O)CCC(=O)NC1=O,0.23
5,Cc1cc(C)c(C)c(N2C(=O)c3ccccc3C2=O)c1,4.05
6,O=C1c2ccccc2C(=O)N1c1cnc(O)nc1O,7.69
7,O=C1CCC(N2C(=O)c3ccccc3C2=O)C(=O)N1 (stereo unspecified),1.23
8,COc1cc(C)nc(N2C(=O)Cc3ccccc3C2=O)n1,0.45
9,Cc1cc(C)nc(N2C(=O)Cc3ccccc3C2=O)n1,0.45
10,O=C1NCCCC1N1C(=O)c2ccccc2C1=O (stereo unspecified),1.43
11,C[C@@]1(N2C(=O)c3cccc(N)c3C2=O)CCC(=O)NC1=O,11.1
12,O=C1CCN(N2C(=O)c3ccccc3C2=O)C(=O)N1,1.45
